Measurements published in paper PMC12015462, “Prioritization of novel anti-infective stilbene derivatives by combining metabolomic data organization and a stringent 3R-infection model in a knowledge graph” (RSC Advances, 2025).
Like-named read-outs stand apart in the source and are kept apart here.

Columns and labels:
Assay type in all cases: cell-based
Mycobacterium marinum [1] = experiment: Infection assay: intracellular M. marinum growth (luminescence) in D. discoideum; conditions: for activity at 0.411523 µM / activity at 1.23457 µM / activity at 3.7037 µM / activity at 11.1111 µM / activity at 33.3333 µM / activity at 100 µM: 72 h; for activity at 0.411523 µM: conc 0.411522634 uM; for activity at 1.23457 µM: conc 1.234567901 uM; for activity at 3.7037 µM: conc 3.703703704 uM; for activity at 11.1111 µM: conc 11.11111111 uM; for activity at 33.3333 µM: conc 33.33333333 uM; for activity at 100 µM: conc 100 uM
From the text: (§1) Since fractions were not weighed individually, the injection mass was used to calculate an average mass per fraction and thus a nominal mass concentration.

Dictyostelium discoideum = experiment: Infection assay: growth of the host amoeba D. discoideum (fluorescence) in infection; conditions: for activity at 0.411523 µM / activity at 1.23457 µM / activity at 3.7037 µM / activity at 11.1111 µM / activity at 33.3333 µM / activity at 100 µM: 72 h
From the text: as §1

Mycobacterium marinum [2] = experiment: Anti-biotic assay: M. marinum growth in broth (luminescence); conditions: 72 h
[3] = vehicle control set at 1, read-out: mean normalized residual growth, Mm in infection
[4] = vehicle control set at 1, read-out: median normalized residual growth, Mm in infection
[5] = read-out: mean normalized residual growth, Dd in infection
[6] = read-out: median normalized residual growth, Dd in infection
[7] = read-out: mean (normalised M. marinum growth, Mm in broth)
[8] = read-out: median (normalised M. marinum growth, Mm in broth)

Oc1ccc(/C=C/c2cc(O)c3c(c2)O[C@@H](c2ccc(O)cc2O)[C@@H]3c2cc(O)cc(O)c2)cc1 (relative stereo) [Compound 1, (+)-Gnetin D]
activity at 0.411523 µM (Mycobacterium marinum [1]; [3]): 93.5%
activity at 0.411523 µM (Mycobacterium marinum [1]; [4]): 93.7%
activity at 1.23457 µM (Mycobacterium marinum [1]; [3]): 114%
activity at 1.23457 µM (Mycobacterium marinum [1]; [4]): 117%
activity at 3.7037 µM (Mycobacterium marinum [1]; [3]): 153%
activity at 3.7037 µM (Mycobacterium marinum [1]; [4]): 154%
activity at 11.1111 µM (Mycobacterium marinum [1]; [3]): 171%
activity at 11.1111 µM (Mycobacterium marinum [1]; [4]): 172%
activity at 33.3333 µM (Mycobacterium marinum [1]; [3]): 168%
activity at 33.3333 µM (Mycobacterium marinum [1]; [4]): 169%
activity at 100 µM (Mycobacterium marinum [1]; [3]): 86.4%
activity at 100 µM (Mycobacterium marinum [1]; [4]): 83.4%
IC50 (Mycobacterium marinum [1]; interpolated between the two concentrations closest to residual growth 0.5, top concentration 100 μM): > 100 µM
activity at 0.411523 µM (Dictyostelium discoideum; [5]): 161%
activity at 1.23457 µM (Dictyostelium discoideum; [5]): 111%
activity at 3.7037 µM (Dictyostelium discoideum; [5]): 113%
activity at 11.1111 µM (Dictyostelium discoideum; [5]): 81.5%
activity at 33.3333 µM (Dictyostelium discoideum; [5]): 58.3%
activity at 100 µM (Dictyostelium discoideum; [5]): 47.7%
activity at 0.411523 µM (Dictyostelium discoideum; [6]): 94.2%
activity at 1.23457 µM (Dictyostelium discoideum; [6]): 88.8%
activity at 3.7037 µM (Dictyostelium discoideum; [6]): 85.1%
activity at 11.1111 µM (Dictyostelium discoideum; [6]): 80.3%
activity at 33.3333 µM (Dictyostelium discoideum; [6]): 86.2%
activity at 100 µM (Dictyostelium discoideum; [6]): 82.6%
IC50 (Dictyostelium discoideum; read-out: IC50 Dd in infection (μM)): > 100 µM
activity at 0.411523 µM (Mycobacterium marinum [2]; [7]): 121%
activity at 1.23457 µM (Mycobacterium marinum [2]; [7]): 119%
activity at 3.7037 µM (Mycobacterium marinum [2]; [7]): 118%
activity at 11.1111 µM (Mycobacterium marinum [2]; [7]): 111%
activity at 33.3333 µM (Mycobacterium marinum [2]; [7]): 110%
activity at 100 µM (Mycobacterium marinum [2]; [7]): 102%
activity at 0.411523 µM (Mycobacterium marinum [2]; [8]): 120%
activity at 1.23457 µM (Mycobacterium marinum [2]; [8]): 116%
activity at 3.7037 µM (Mycobacterium marinum [2]; [8]): 117%
activity at 11.1111 µM (Mycobacterium marinum [2]; [8]): 110%
activity at 33.3333 µM (Mycobacterium marinum [2]; [8]): 110%
activity at 100 µM (Mycobacterium marinum [2]; [8]): 102%
